Data: the supplement of paper PMC10307832

Assays:
Assay in all cases: relative viability (nuclei count vs DMSO), 5 days (fraction); higher = more cells survive
Gemcitabine + Crizotinib = compound: Nc1ccn([C@@H]2O[C@H](CO)[C@@H](O)C2(F)F)c(=O)n1 [Gemcitabine] + C[C@@H](Oc1cc(-c2cnn(C3CCNCC3)c2)cnc1N)c1c(Cl)ccc(F)c1Cl [Crizotinib] (partner 1 µM)
Summary of the method: (§1)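 Lung cancer cell lines in 1536-well plates got either a single drug or a fixed anchor-drug dose together with five library-drug doses (not always all listed) in √10 steps, by pin tool, on the day after seeding. Nuclei were counted after 5 days, and relative viability is the treated-to-vehicle ratio of nuclei counts. Values are medians of duplicate plates.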

Gemcitabine + Phenformin = compound: Nc1ccn([C@@H]2O[C@H](CO)[C@@H](O)C2(F)F)c(=O)n1 [Gemcitabine] + N=C(N)NC(=N)NCCc1ccccc1 [Phenformin] (partner 250 µM)
Summary of the method: as §1

Gemcitabine + Navitoclax = compound: Nc1ccn([C@@H]2O[C@H](CO)[C@@H](O)C2(F)F)c(=O)n1 [Gemcitabine] + CC1(C)CCC(c2ccc(Cl)cc2)=C(CN2CCN(c3ccc(C(=O)NS(=O)(=O)c4ccc(N[C@H](CCN5CCOCC5)CSc5ccccc5)c(S(=O)(=O)C(F)(F)F)c4)cc3)CC2)C1 [Navitoclax] (partner 0.5 µM)
Summary of the method: as §1

Gemcitabine + Decitabine = compound: Nc1ccn([C@@H]2O[C@H](CO)[C@@H](O)C2(F)F)c(=O)n1 [Gemcitabine] + Nc1ncn([C@H]2C[C@H](O)[C@@H](CO)O2)c(=O)n1 [Decitabine] (partner 2 µM)
Summary of the method: as §1

| Cell Line | relative viability (Gemcitabine + Crizotinib; first compound 0.001 µM) | relative viability (Gemcitabine + Crizotinib; first compound 0.003162 µM) | relative viability (Gemcitabine + Crizotinib; first compound 0.01 µM) | relative viability (Gemcitabine + Crizotinib; first compound 0.03162 µM) | relative viability (Gemcitabine + Crizotinib; first compound 0.1 µM) | relative viability (Gemcitabine + Phenformin; first compound 0.001 µM) | relative viability (Gemcitabine + Phenformin; first compound 0.003162 µM) | relative viability (Gemcitabine + Phenformin; first compound 0.01 µM) | relative viability (Gemcitabine + Phenformin; first compound 0.03162 µM) | relative viability (Gemcitabine + Phenformin; first compound 0.1 µM) | relative viability (Gemcitabine + Navitoclax; first compound 0.001 µM) | relative viability (Gemcitabine + Navitoclax; first compound 0.003162 µM) | relative viability (Gemcitabine + Navitoclax; first compound 0.01 µM) | relative viability (Gemcitabine + Navitoclax; first compound 0.03162 µM) | relative viability (Gemcitabine + Navitoclax; first compound 0.1 µM) | relative viability (Gemcitabine + Decitabine; first compound 0.001 µM) | relative viability (Gemcitabine + Decitabine; first compound 0.003162 µM) | relative viability (Gemcitabine + Decitabine; first compound 0.01 µM) | relative viability (Gemcitabine + Decitabine; first compound 0.03162 µM) | relative viability (Gemcitabine + Decitabine; first compound 0.1 µM) |
| --- | --- | --- | --- | --- | --- | --- | --- | --- | --- | --- | --- | --- | --- | --- | --- | --- | --- | --- | --- | --- |
| NCI-H2085 | 0.74 | 0.828 | 0.699 | 0.585 | 0.4 | 0.79 | 0.61 | 0.422 | 0.282 | 0.271 | 1.1 | 1.15 | 0.848 | 0.646 | 0.484 | 0.583 | 0.507 | 0.486 | 0.425 | 0.428 |
| NCI-H2087 | 0.963 | 0.8 | 0.405 | 0.133 | 0.161 | 0.455 | 0.231 | 0.149 | 0.108 | 0.113 | 1.11 | 0.813 | 0.397 | 0.156 | 0.153 | 0.283 | 0.307 | 0.179 | 0.086 | 0.0869 |
| NCI-H2126 | 1.04 | 0.999 | 0.968 | 0.644 | 0.41 | 0.504 | 0.422 | 0.399 | 0.358 | 0.216 | 0.821 | 0.815 | 0.812 | 0.728 | 0.369 | 0.604 | 0.546 | 0.546 | 0.423 | 0.299 |
| NCI-H2170 | 1.39 | 1.23 | 0.615 | 0.161 | 0.155 | 0.426 | 0.424 | 0.363 | 0.196 | 0.144 | 0.72 | 0.52 | 0.458 | 0.183 | 0.162 | 0.457 | 0.455 | 0.349 | 0.201 | 0.126 |
| NCI-H2347 | 0.756 | 0.704 | 0.623 | 0.452 | 0.477 | 0.381 | 0.346 | 0.304 | 0.275 | 0.221 | 0.86 | 0.64 | 0.639 | 0.334 | 0.206 | 0.537 | 0.645 | 0.58 | 0.478 | 0.539 |
| NCI-H2405 | 0.846 | 0.775 | 0.564 | 0.245 | 0.22 | 0.405 | 0.26 | 0.247 | 0.192 | 0.173 | 0.992 | 0.551 | 0.0966 | 0.084 | 0.0831 | 0.735 | 0.676 | 0.427 | 0.31 | 0.226 |
| NCI-H3122 | 0.306 | 0.27 | 0.253 | 0.135 | 0.119 | 0.436 | 0.322 | 0.165 | 0.13 | 0.121 | 1.02 | 1.03 | 0.912 | 0.253 | 0.196 | 0.361 | 0.396 | 0.389 | 0.175 | 0.146 |
| PC-3 [JPC-3] | 1 | 0.838 | 0.611 | 0.295 | 0.246 | 0.503 | 0.446 | 0.365 | 0.325 | 0.287 | 0.81 | 0.688 | 0.504 | 0.448 | 0.281 | 0.935 | 0.573 | 0.602 | 0.524 | 0.465 |
| PC-14 | 0.903 | 0.569 | 0.308 | 0.0832 | 0.0612 | 0.558 | 0.113 | 0.0527 | 0.0312 | 0.0491 | 0.986 | 0.813 | 0.619 | 0.035 | 0.0244 | 0.217 | 0.0953 | 0.0507 | 0.0388 | 0.0405 |
| RERF-LC-KJ | 0.901 | 0.866 | 0.844 | 0.73 | 0.252 | 0.454 | 0.455 | 0.404 | 0.285 | 0.26 | 1.05 | 1.26 | 0.872 | 0.224 | 0.227 | 0.831 | 0.701 | 0.636 | 0.529 | 0.324 |
| SK-LU-1 | 1.02 | 0.364 | 0.258 | 0.208 | 0.252 | 0.578 | 0.272 | 0.154 | 0.115 | 0.124 | 0.526 | 0.224 | 0.0818 | 0.117 | 0.118 | 0.623 | 0.635 | 0.376 | 0.24 | 0.246 |
| SK-MES-1 | 0.923 | 0.809 | 0.221 | 0.179 | 0.164 | 0.552 | 0.249 | 0.191 | 0.158 | 0.154 | 0.929 | 0.723 | 0.158 | 0.0905 | 0.077 | 0.387 | 0.264 | 0.168 | 0.172 | 0.152 |
| SW 1573 | 0.997 | 0.728 | 0.202 | 0.12 | 0.0565 | 0.353 | 0.202 | 0.104 | 0.0718 | 0.0652 | 1.18 | 0.986 | 0.0907 | 0.0747 | 0.0361 | 0.529 | 0.158 | 0.113 | 0.0711 | 0.0511 |
| UMC-11 | 0.746 | 0.574 | 0.598 | 0.549 | 0.233 | 0.384 | 0.349 | 0.328 | 0.275 | 0.185 | 0.376 | 0.309 | 0.291 | 0.21 | 0.118 | 0.57 | 0.417 | 0.518 | 0.37 | 0.311 |
